Measured values: patent US20250049972A1, “METHOD OF DETECTING PROSTATE CANCER IN A HUMAN SUBJECT USING A Cu 64 PSMA I&T INJECTION” (Curium US LLC, priority 2023, published 2025)

Test system: prostate cancer lesions
Assay: Phase 2 PET/CT imaging: CLR, CDR and per patient sensitivity/specificity vs Composite Reference Standard, 3 blinded readers
Format: in vivo, human
Conditions: for Average Patient CDR: Average Correct Detection Rate (Standard Deviation) / Correct Localization Rate, region level / Number of Lesions Correctly Identified: IME Population; for Average Patient CDR: Average Correct Detection Rate (Standard Deviation) / Correct Localization Rate, region level: Phase 2; for Correct Localization Rate (region level CLR) / Number of Segments Correctly Identified / Pa Patient Specificity: Correct Patient Detection Rate / Pet Patient Sensitivity: Correct Patient Detection Rate: ITI Population; for Correct Localization Rate (region level CLR): 7-9 mCi; for Number of Lesions Correctly Identified: of 30 lesions truth; for Number of Segments Correctly Identified: of 30 segments truth
Method: A study was conducted to evaluate the use of Cu-64 PSMA I&T injection in imaging human patients with recurrent metastatic prostate cancer. The primary objectives were to determine efficacy on region and patient level and to assess safety for use with humans. The secondary objective was to assess image quality or AIQ using CLR and CDR. The study had two co-primary endpoints. First, region-level CLR defined as the percentage of regions containing at least one true PET positive lesion, with exactly localized correspondence between PET/CT imaging and the Composite Reference Standard regardless of any co-existent false positive findings, within the same region, out of all regions containing at least one PET positive finding. Second, patient-level CDR defined as the percentage of patients who have at least one true PET positive lesion, with exactly localized correspondence between PET imaging and the Composite Reference Standard, regardless of any co-existent false positive findings, out of all patients who are scanned. Both endpoints were measured for 1 and 4 hours post injection using PET scans. The study was powered to detect a CLR (detection rate) of greater than 60%. A sample size of 26 patients has an 80% power of detecting a true sensitivity of 85%. Key inclusion criteria included histologically proven prostate adenocarcinoma, prior radical prostatectomy, radiation therapy with curative intent, disease recurrence based on defined rise in PSA, and at least one extra prostatic site of disease suspected based on prior imaging or diagnosed by biopsy. Patients were administered 7-9 mCi Cu-64 PSMA I&T injection and then PET and/or CT images were acquired for all patients starting at approximately […] and 4 hours±30 minutes post Cu-64 PSMA I&T injection. Indeed, the images were collected from an approximate range of 45 minutes to 4 hours and 30 minutes post injection for all patients. The PET and CT images were interpreted independently by three readers blinded to all patient information. Each patient study was assessed and scored for the detection of prostate cancer. Specifically, each reader categorized images as “Disease” or “No Disease” based only on tumor uptake of Cu-64 PSMA-I&T in each of the five regions: (1) prostate bed or prostate gland, (2) lymph nodes (pelvic), (3) lymph nodes (extra pelvic), (4) bone, and (5) viscera/soft tissue. Analysis of the reads were used for determination of the CLR and CDR by comparison to the Composite Reference Standard. The Composite Reference Standard was defined as local histopathology obtained within 60 days before or following Cu-64 PSMA I&T PET/CT, or, if histopathology was not available, anatomical correlation of conventional image findings (e.g., targeted MRI or CT or any FDA-approved PET PSMA agent) obtained within 60 days before or following Cu-64 PSMA I&T PET/CT. A statistical threshold (with a lower bound of the 95% confidence interval) of 60% was prespecified for both CLR and CDR endpoints. The Phase 2 portion of the study included a separate group of 26 patients with biochemical recurrent PC. The dose for the Phase 2 portion of the study was 9 mCi with an acceptable range of 7 to 9 mCi. PET/CT images were acquired for all patients at 1 hour (±15 minutes) and 4 hours (±0.5 hours) post injection. The PET/CT images were interpreted independently by 3 readers blinded to all patient information. Each patient was assessed and scored for the detection of prostate cancer lesions. Specifically, each reader categorized images as “Disease” or “No Disease” based only on tumor uptake of copper Cu-64 PSMA I&T in each of 5 regions: (1) prostate bed or prostate gland, (2) lymph nodes (pelvic), (3) lymph nodes (extra pelvic), (4) bone, and (5) viscera/soft tissue. Analysis of the reads was used for determination of the CLR and CDR for 1 hour and 4 hours post-injection imaging of copper Cu-64 PSMA I&T PET/CT by comparison to a composite reference standard collected for each enrolled patient. […]

[1] = all 3 readers at both 1 and 4 hours

## O=C(O)CC[C@H](NC(=O)N[C@@H](CCCCNC(=O)CCCCCCC(=O)NCCCC[C@@H](NC(=O)[C@@H](Cc1ccccc1)NC(=O)[C@@H](Cc1ccc(O)c(I)c1)NC(=O)CC[C@H](C(=O)O)N1CCN(CC(=O)O)CCN(CC(=O)O)CCN(CC(=O)O)CC1)C(=O)O)C(=O)O)C(=O)O [Cu-64 PSMA I&T, 64 Cu-(3S, 7S, 26R, 29R, 32R, 37R)-29-benzyl-32(4-hydroxy-3-iodobenzyl)-5, 13, 20, 28, 31, 34-hexaoxo-37-(4,7,10-tris(carboxymethyl)-1,4,7, 10-tetraazacyclododecan-1-yl)-4,6, 12, 21, 27, 30, 33-heptaazaheptatriacontane-1,3,7, 26, 37-pentacarboxylic acid, metal not drawn]
READER 1, 1 Hour Image
  Average Patient CDR: Average Correct Detection Rate (Standard Deviation): 84.21% (33.552%)
  Correct Localization Rate, region level: 86.67%
  Correct Localization Rate (region level CLR): 86.67%
  Number of Lesions Correctly Identified: 26
  Number of Segments Correctly Identified: 26
READER 1, 1 Hour image
  Pa Patient Specificity: Correct Patient Detection Rate: 100.00%
  Pet Patient Sensitivity: Correct Patient Detection Rate: 100.00%
READER 1, 4 Hour Image
  Average Patient CDR: Average Correct Detection Rate (Standard Deviation): 84.21% (33.552%)
  Correct Localization Rate, region level: 86.67%
  Pa Patient Specificity: Correct Patient Detection Rate: 100.00%
  Pet Patient Sensitivity: Correct Patient Detection Rate: 100.00%
  Correct Localization Rate (region level CLR): 86.67%
  Number of Lesions Correctly Identified: 26
  Number of Segments Correctly Identified: 26
READER 2, 1 Hour Image
  Average Patient CDR: Average Correct Detection Rate (Standard Deviation): 77.19% (38.172%)
  Correct Localization Rate, region level: 76.7%
  Pa Patient Specificity: Correct Patient Detection Rate: 100.00%
  Pet Patient Sensitivity: Correct Patient Detection Rate: 100.00%
  Correct Localization Rate (region level CLR): 76.67%
  Number of Lesions Correctly Identified: 23
  Number of Segments Correctly Identified: 26
READER 2, 4 Hour Image
  Average Patient CDR: Average Correct Detection Rate (Standard Deviation): 79.82% (37.916%)
  Correct Localization Rate, region level: 80.00%
  Pa Patient Specificity: Correct Patient Detection Rate: 100.00%
  Pet Patient Sensitivity: Correct Patient Detection Rate: 100.00%
  Correct Localization Rate (region level CLR): 80.00%
  Number of Lesions Correctly Identified: 24
  Number of Segments Correctly Identified: 24
READER 3, 1 Hour Image
  Average Patient CDR: Average Correct Detection Rate (Standard Deviation): 80.70% (35.252%)
  Correct Localization Rate, region level: 80.110%
  Pa Patient Specificity: Correct Patient Detection Rate: 100.00%
  Pet Patient Sensitivity: Correct Patient Detection Rate: 100.00%
  Correct Localization Rate (region level CLR): 80.00%
  Number of Lesions Correctly Identified: 24
  Number of Segments Correctly Identified: 24
READER 3, 4 Hour Image
  Average Patient CDR: Average Correct Detection Rate (Standard Deviation): 80.70% (35.252%)
  Correct Localization Rate, region level: 80.00%
  Pa Patient Specificity: Correct Patient Detection Rate: 100%
  Pet Patient Sensitivity: Correct Patient Detection Rate: 100.00%
  Correct Localization Rate (region level CLR): 80.00%
  Number of Lesions Correctly Identified: 24
  Number of Segments Correctly Identified: 24
[1]
  patient level CDR vs prespecified threshold: > 60%
  region level CLR vs prespecified threshold: > 60%
All patients, both 1 and 4 hour images
  correct patient detection rate (per patient sensitivity and specificity): 100.00%
Of 26 patients
  patients with no lesions detected on the PET/CT scan: 7
  patients with positive lesions on the PET/CT scan: 19
